Reference: US20080095741A1, “R-(+)-alpha-liponic acid for the prevention of diabetes” (MEDA Pharma GmbH & Co. KG, priority 2004, published 2008)
Like-named read-outs stand apart in the source and are kept apart here.

Legend:
[1] = tested on: biobreed rat; assay: Preventive therapy in the biobreed rat model of diabetes (occurrence and progression); type: in vivo
Excerpt: The experiments for the primary and secondary prevention of diabetes with α-lipoic acid or its derivatives were investigated using a suitable model system. The biobreed rat is a model of diabetes in which a primary loss of p cells also occurs on account of autoimmune processes. […] A secondary stress of the p cells occurs with the simultaneous development of hyperglycemia on account of the increasing glucose toxicity. Thus, pathogenic processes are reflected in this model that stand in the foreground of the progression of the disease and contribute to the progression in all forms of diabetes.
A preventive therapy with racemic α-lipoic acid as well as the two enantiomers took place in the biobreed rat.
This allows the conclusion that for the primary and secondary prevention of diabetes only the R-configured, dextrorotary enantiomer is suitable, as well as derivatives derived from it with intact dithiolane structure. This can be used just as suitably for the prevention of the secondary loss of function of β cells after transplantation.

[2] = tested on: NOD mouse; conditions: Faust et al., 1994, cited from earlier work
[3] = tested on: isolated pancreatic cells; conditions: pre-incubation; radical-generating system or activated macrophages; Burkart et al., 1993; cited from earlier work
[4] = tested on: Biobreed rats; assay: Biobreed rat, development and progression of diabetes determined by daily measuring of the blood sugar as surrogate; type: in vivo; conditions: chronic ip, tromethamine salt, blood from the caudal vein
Experimental: Biobreed rats (male and female, 130-180 g) 5-19 weeks old were chronically treated (ip) with different doses of R-(+)-α-lipoic acid as tromethamine salt. The development and progression of diabetes was determined by daily measuring of the blood sugar (taken from the caudal vein) as surrogate. […] Biobreed rats (male and female, 130-180 g) 5-19 weeks old were each chronically treated with 36.6 mg of different lipoic acid derivatives (as tromethamine salt (ip)). with as tromethamine salt. The development and progression of diabetes was determined by daily measuring of the blood sugar (taken from the caudal vein) as surrogate.

[5] = tested on: Biobreed rats; assay: Biobreed rat, survival time and water consumption as further surrogates; type: in vivo; conditions: dose-dependent
Experimental: The survival time and the water consumption were determined as further surrogates for the occurrence and deterioration of diabetes.

[6] = tested on: Biobreed rats; assay: Biobreed rat, development and progression of diabetes determined by weight loss as surrogate; type: in vivo; conditions: chronic ip, tromethamine salt
Experimental: Biobreed rats (male and female, 130-180 g) 5-19 weeks old were chronically treated (ip) with different doses of R-(+)-α-lipoic acid as tromethamine salt. The development and progression of diabetes was determined by weight loss as surrogate. […] Biobreed rats (male and female, 130-180 g) 5-19 weeks old were each chronically treated (ip) with 36.6 mg of different lipoic acid derivatives (as tromethamine salt). The development and progression of diabetes was determined by daily weight measuring as surrogate.

[7] = tested on: β cells; conditions: Kaneto et al., 1999; cited from earlier work

O=C(O)CCCC[C@H]1CCSS1 (single isomer, unassigned) [S-(−)- enantiomer]
occurrence of diabetes [1]: remained without effect
progression of manifest diabetes [1]: remained without effect

O=C(O)CCCCC1CCSS1 (racemic) [racemic mixture]
infiltration with immunocompetent cells into pancreatic tissue (surrogate of β cell destruction) ([2]; chronic administration, without cytotoxin): had no influence
protective action ([2]; with additional intoxication with cyclophosphamide): protective action
occurrence of diabetes [1]: remained without effect
progression of manifest diabetes [1]: remained without effect

O=C(O)CCCC[C@@H](S)CCS (racemic) [racemic dihydrolipoic acid]
protection of pancreatic cells from lysis [3]: partially protected from lysis

O=C(O)CCCCC1CCSS1 (stereo not drawn) [R-(+)-α-lipoic acid, 1,2-dithiolane-3-pentanoic acid]
progression of a rise in blood sugar ([4]; Example 3, different doses): delayed progression of a rise in blood sugar in a dose-dependent manner
progression of diabetes (daily blood sugar as surrogate) ([4]; Example 4, 36.6 mg): had an effect on the progression of diabetes
increase of the consumption of water [5]: positive effect
survival time [5]: positive effect
progression of diabetes (weight loss as surrogate) ([6]; Example 1, different doses): delayed progression of diabetes in a dose-dependent manner
progression of diabetes (daily weight measuring as surrogate) ([6]; Example 2, 36.6 mg): had an effect on the progression of diabetes
occurrence of diabetes ([1]; listed as R-(+)-enantiomer): can be delayed
progression of manifest diabetes ([1]; listed as R-(+)-enantiomer): distinctly attenuated in a dose-dependent manner

vitamin E
effect on the glucose toxicity of β cells [7]: no effect

CC(=O)N[C@@H](CS)C(=O)O [N-acetylcystein]
effect on the glucose toxicity of β cells [7]: a certain protective action
